This passage reports GI50 results from patent US20240408093A1, “HETEROBIFUNCTIONAL COMPOUNDS AND THEIR USE IN TREATING DISEASE” (HALDA THERAPEUTICS OPCO, INC., priority 2022, published 2024).

Bounds are passed on as bounds.

In general, GI50 refers to the concentration giving 50% growth inhibition. Higher therefore signals lower sensitivity of the cells.

One assay relates to HEK293 cells. Briefly: Cellular growth inhibition assay, HEK293 cells (Example 15). The assay is classed as cell-based. Conditions: Homo sapiens, 72 h, three days, CellTiter-Glo 2.0. Here is the method: (§1) HEK293 and HeLa cells were cultured in DMEM medium supplemented with 10% fetal bovine serum and 1% Penn/Strep. Cells were seeded in white 384-well plates at 500 cells/well in 25 μL complete medium. Following seeding, plates were spun at 300×g for three minutes and cultured at 37° C. with 5% CO2 in a humidified tissue culture incubator.
(§2) After 24 hours, compounds were titrated in 100% DMSO and diluted in complete cell culture medium. A 25 μL aliquot of compound/media mixture was added to cells to bring total volume in the wells to 50 μL. DMSO alone was used as a negative control. Plates were then spun at 300×g for three minutes and stored at 37° C. with 5% CO2 for three days.
(§3) On Day 0 and Day 3 of compound treatment, cell viability was quantified with CellTiter-Glo 2.0 reagent (Promega). After equilibrating microplates at room temperature for 30 minutes, 25 μL CellTiter-Glo 2.0 reagent was dispensed into each well to bring total volume to 75 μL. Plates were mixed on a shaker for 2 minutes at 500 rpm, followed by a 10-minute incubation at room temperature. Following a quick spin, luminescence readings were measured with an EnVision Plate Reader. Data was normalized to DMSO treated Day 0 and Day 3 readings. […]

The next assay deals with HeLa cells. Briefly: Cellular growth inhibition assay, HeLa cells (Example 15). Conditions: Homo sapiens, 72 h, three days, CellTiter-Glo 2.0. In kind it is cell-based. The protocol:
as §1, §2, §3
(In ATP-based viability assays light output follows the ATP content of the culture.)

Consider `C=C(CN(C(=O)NCc1ccc2c(c1)CN(C1CCC(=O)NC1=O)C2=O)c1ccc(C)c(Cl)c1)C(=O)N1CCC[C@@H](n2nc(-c3ccc(Oc4ccccc4)cc3)c3c(N)ncnc32)C1` (some centres unmarked) [Compound I-4], for which the figures for the GI50 in the assay on HEK293 cells and in the assay with HeLa cells were 1.5 to 10 µM and greater than 10 µM, respectively.
